How the values were obtained:
[1] = test system: A. baumannii (ATCC 19606); assay: MIC of polymyxin-based antibiotics with LNT102 (broth microdilution); format: cell-based; settings: + PBS or + LNT102 endolysin 1 μM, 37° C. 18 hours
[2] = test system: Pseudomonas aeruginosa PA01; assay: Galleria mellonella Pseudomonas aeruginosa infected model, viability; format: in vivo; settings: PA01 50 CFU/larva; LNT101 0.6 or 6 μg/larva, Colistin 0.5 μg/larva; observation for 72 hours
Method: The Pseudomonas aeruginosa killing ability of the endolysin LNT101 was also confirmed in vivo. As an animal model for the in vivo effectivity evaluation, Galleria mellonella was used. The Galleria mellonella model was divided into the healthy group (non-infection group), Pseudomonas aeruginosa infected group (drug non-administration group), 2 LNT101 administration groups in which LNT101 was administered into the infection model, Colistin administration group in which colistin was administered into the Pseudomonas aeruginosa infected model, and combination administration group in which LNT101 and colistin were administered in combination into the Pseudomonas aeruginosa infected model to progress an experiment, and 10 of Galleria mellonella per each group was used.
The Pseudomonas aeruginosa infected model was prepared by infecting Pseudomonas aeruginosa PA01 at the LD80 concentration, 50 CFU/larva, and LNT101 was administered at 0.6 μg/larva (3 mg/Kg) and 6 μg/larva (30 mg/Kg), respectively. Colistin was administered at 0.5 μg/larva (2.5 mg/Kg), and for administration in combination, Colistin at 0.5 μg/larva (2.5 mg/Kg) and LNT101 at 6 μg/larva (30 mg/Kg) were administered. […] In particular, in the LNT101 6 μg/larva (30 mg/Kg) administration group, the viability of 30% was confirmed.

[3] = test system: P. aeruginosa; assay: MIC of polymyxin-based antibiotics with LNT101 (broth microdilution); format: cell-based; settings: for reduction of MIC of the polymyxin-based antibiotic in combination with LNT101: LNT101 endolysin 1 μM; for MIC of antibiotics: P. aeruginosa 1×10^5 CFU/ml, 37° C. 18 hours, combination with LNT101 endolysin 1 μM, otherwise PBS
Method: The synergy effect by treatment in combination of the polymyxin-based antibiotic having a mechanism acting on the cell membrane of bacterium and endolysin LNT101 was confirmed. Specifically, polymyxin B (32 μg/ml-0.03 μg/ml) and colistin (128 μg/ml-0.1 μg/ml) were diluted by ½ per well in a microplate, and then a LNT101 endolysin 1 μM combination treatment group and the same amount of PBS treatment group was made. In all wells, P. aeruginosa 1×10^5 CFU/ml was treated by total 100 μl. After that, they were cultured at 37° C. for 18 hours.
The MIC change of the polymyxin-based antibiotic by combination treatment of the polymyxin-based antibiotic (polymyxin B, Colistin) and LNT101 endolysin at various concentrations was confirmed, and shown in Table 3 below.

[4] = test system: E. coli(ATCC 8739); assay: MIC of polymyxin-based antibiotics with LNT102 (broth microdilution); format: cell-based; settings: + PBS or + LNT102 endolysin 1 μM, 37° C. 18 hours
Method: (§1) A synergy effect by combination treatment of a polymyxin-based antibiotic having a mechanism acting on the cell membrane of bacterium and endolysin LNT102 purified in Example 2.2 was confirmed. Specifically, after treating 4 μg/ml Polymyxin B to the 96 well microplate row A, serial dilution was performed by ½ in rows B-G. Polymyxin was not treated to the row H. After treating 8 μg/ml Colistin to the 96 well microplate row A, a combination treatment group in which LNT102 endolysin 1 μM was further treated and a PBS treatment group in the same amount were made. All wells were treated with Pseudomonas aeruginosa and Escherichia coli in an amount of 1×10^5 CFU/ml, total 100 μl, respectively. After that, they were cultured at 37° C. for 18 hours.
(§2) The MIC change of the polymyxin-based antibiotics by combination treatment of the polymyxin-base antibiotics (polymyxin B, Colistin) at various concentrations and LNT102 endolysin was measured and shown in Table 5 below.

[5] = test system: P. aeruginosa (ATCC 27853); assay: as above; format: cell-based; settings: + PBS or + LNT102 endolysin 1 μM, 37° C. 18 hours
Method: as §1, §2

[6] = test system: gram negative bacteria; assay: MIC change of polymyxin-based antibiotics with LNT102, all strains of Table 5; format: cell-based, P. aeruginosa, A. baumannii, E. coli; settings: LNT102 endolysin 1 μM; maximum over the strains of Table 5
Method: as §1, §2

[7] = test system: gram negative bacterium; assay: CFU reduction evaluation on various gram negative bacterium; format: cell-based
Method: For this, Endolysin LNT101 and LNT102 at a concentration of 2 μM and each 1×10^6 CFU of Pseudomonas aeruginosa (PA01; ATCC 15692), Acinetobacter baumannii (ATCC 17978), Escherichia coli (ATCC 8739), Klebsiella pneumoniae (ATCC 13883), Enterobacter aerogenes (CCARM 16006), and Salmonella enteritidis (ATCC 13076) was added in reaction buffer (20 mM Tris-Cl, pH 7.5) so that the final volume was 200 μl, and it was left at 37° C. for 2 hours. In 2 hours, the number of colonies of each gram negative bacterium was confirmed, and the result was shown in FIG. 8 (in FIG. 8, PA90 represents endolysin LNT101 and mtPA90 represents endolysin LNT102, respectively).
The endolysin LNT102 at a concentration of 0.1, 0.5, 2.5 μM, and each 1×10^6 CFU of Pseudomonas aeruginosa, Acinetobacter baumannii, and Escherichia coli was added in reaction buffer (20 mM Tris-Cl, pH 7.5) so that the final volume was 200 μl, and it was left at 37° C. for 2 hours.
In order to confirm the killing ability against gram negative bacterium of the fusion polypeptide LNT103 prepared in Example 3.2, CFU reduction evaluation was performed for various gram negative bacterium. In order to perform the CFU reduction evaluation, 2 μM of each of LNT101, LNT102, and LNT103 prepared in Example 3, and 1×10^6 CFU of each of Pseudomonas aeruginosa (PA01; ATCC 15692), Acinetobacter baumannii (ATCC 17978), Escherichia coli (ATCC 8739), Klebsiella pneumoniae (ATCC 13883), and Enterobacter aerogenes (CCARM 16006) were added to reaction buffer (20 mM Tris-Cl, pH7.5) so that the final volume was 200 μl, and it was left at 37° C. for 2 hours. After that, the number of the colonies of each gram negative bacterium was confirmed to compare and evaluate the antibiotic effect of each polypeptide. As a control group, the PBS treatment group (treating PBS in the same volume as the fusion polypeptide) was used.
In addition, the same test was performed by using the fusion polypeptide LNT103, and CecA-LNT101 at a concentration of 2 μM, and the result was shown in FIG. 15. For comparison, the same test was performed for groups treated with LNT102 or PBS.
On the other hand, in order to compare the antibacterial activity in case that a protein other than endolysin (LNT102 or LNT101) was fused to Cecropin A, the killing ability against gram negative bacterium of the fusion polypeptide LNT103 and cecropin A-EGFP fusion protein (a protein in which EGFP (GenBank Accession No. AAB02572.1) having no endolysin activity by replacing LNT102 in LNT103) was evaluated. For this, the proteins were treated in an amount of 0.2 μM or 2 μM, respectively, to perform the CFU reduction test. […] In particular, it could be confirmed that the CFU Counting result for all the tested gram negative bacterium killed all bacterium treated with 0, when LNT103 2 μM was treated.
Furthermore, the killing ability against gram negative bacterium according to the concentration and/or treatment time of the fusion polypeptide LNT103 was tested. Specifically, the fusion polypeptide LNT103 at a concentration of 0.1, 0.3, 0.9, or 2.7 μM and 1×10^6 CFU of Pseudomonas aeruginosa (PA01; ATCC 15692) or Acinetobacter baumannii (ATCC 19606) were added to reaction buffer (20 mM Tris-Cl, pH7.5) so that the final volume was 200 μl, and it was left at 37° C. for 2 hours, and then the number of the colonies was confirmed, and the result was shown in A of FIG. 17.
In addition, the fusion polypeptide LNT103 at a concentration of 2 μM and 1×10^6 CFU of Pseudomonas aeruginosa (PA01; ATCC 15692) were added to reaction buffer (20 mM pH7.5) so that the final volume was 200 μl, and in 0, 20 minutes, 40 minutes and 60 minutes at 37° C., the number of the colonies was confirmed, and the result was shown in B of FIG. 17. […]

## Colistin
[1]
  MIC of the polymyxin-based antibiotic: 2 µg/mL
[2]
  viability of Galleria mellonella: the viability was increased
[3]
  reduction of MIC of the polymyxin-based antibiotic in combination with LNT101: 50%
  MIC of antibiotics: 8 µg/mL
[4]
  MIC of the polymyxin-based antibiotic: 2 µg/mL
[5]
  MIC of the polymyxin-based antibiotic: 2 µg/mL
[6]
  reduction of MIC of the polymyxin-based antibiotic in combination with LNT102: reduced by 1/16 times at maximum

## polymyxin B
[1]
  MIC of the polymyxin-based antibiotic: 0.5 µg/mL
[3]
  reduction of MIC of the polymyxin-based antibiotic in combination with LNT101: 50%
  MIC of antibiotics: 4 µg/mL
[4]
  MIC of the polymyxin-based antibiotic: 0.5 µg/mL
[5]
  MIC of the polymyxin-based antibiotic: 0.5 µg/mL
[6]
  reduction of MIC of the polymyxin-based antibiotic in combination with LNT102: reduced by 1/16 times at maximum

B1: LNT102: endolysin LNT101 variant with 15 amino acid mutations, SEQ ID NO: 6, purified with 6× His tag (protein)
chain: MGTVLKRGDRGSAVEDLQMKLNVAGYNLSADGIFGGDTEKAVRDVQAGAGLVVDGKVGPKTLYAIAKSATVPAKWEAIPFPTANKSRSAAMPTLNAVGAMTGVDSRLLATFASIESAFDYTVKAKTSSATGWFQFLDATWDDMIKAYGSKYGIPKDPTRALRKDPRANALMGAEFIKGNAAVLRPVINREPSDTDLYLAHFLGAGGAKKFLSADQKTLGEVLFPKPAKANPSIFSNKGVPRTLAEIYKLFEDKVSKHRA
modifications: 6xHis tag; synthetic_Endolysin LNT102
[7]; 2 μM, 2 hours, 37° C., P. aeruginosa PA01, A. baumannii ATCC 17978, E. coli ATCC 8739, K. pneumoniae ATCC 13883, E. aerogenes CCARM 16006, S. enteritidis ATCC 13076
  killing ability (number of colonies): more excellent killing ability against gram negative bacterium in the same dose-, compared to LNT101
[7]; 0.1, 0.5, 2.5 μM, 30 minutes, 1 hour and 2 hours, Pseudomonas aeruginosa, Acinetobacter baumannii, Escherichia coli
  killing ability (number of colonies): had the killing ability against gram negative bacterium in all the tested treatment doses and time

B2: CecA-LNT101: fusion polypeptide in which Cecropin A was fused to endolysin LNT101; SEQ ID NO: 16 used in the tests (protein)
chain: MASKWKLFKKIEKVGQNIRDGIIKAGPAVAVVGQATQIAKGSGSGSMGTVLKRGDRGSAVEDLQMKLRVAGYAVSADGIFGGDTEKAVRDFQASKALVVDGKVGPATLAELAKSATVPAKWEAIPFPTANKSRSAAMPTLNAVGAMTGTDSRLLATFASIESAFDYTVKASTSSATGWFQFLDATWDDMIKAHGSKYGIPKDPTRALRKDPRANALMGAEFLKGNAAVLRPVINREPSDTDLYLAHFLGAGGAKKFLSADQKTLGEVLFPKPAKANPSIFSNKGVPRTLAEIYKLFEDKVSKHRALEHHHHHH
modifications: synthetic_Fusion Polypeptide CecA-LNT101 with MAS, His tag, and extra sequence
[7]; 2 μM, all the tested bacterium (FIG. 15)
  counting result: 0 log CFU/ml
